In PubChem BioAssay AID1996:
≈ marks a conversion by molar mass, not a printed value.

Conditions: buffer; pH 7.4; 200.0 µM

SMILES	solubility kinetic [µg/mL]
CCOP(=O)(OCC)C1NC(=O)N(c2ccccc2)C1=O (stereo unspecified)	> 46.8
CCSc1nc2sc3c(c2c(=O)n1-c1ccc(C)cc1)CCN(C)C3	35.6 (≈ 95.8 µM)
O=C(CSc1ccc(F)cc1)Nc1ccc2c(c1)C(=O)NC2=O	31.6 (≈ 95.7 µM)
CC1CCCC(C)N1C(=O)COC(=O)c1ccccc1O (stereo unspecified)	42.3 (≈ 145 µM)
Cc1nc2ccc([N+](=O)[O-])cc2c(=O)n1Cc1ccc(F)cc1	4.7 (≈ 15 µM)
Cc1ccccc1N1C(=O)CSC1=C(C#N)C#N	> 38.3
COC(=O)CCSC(=S)N1CCOCC1	> 37.4
OC(COc1ccc2c(c1)OCO2)CN1CCCCC1 (stereo unspecified)	32.5 (≈ 116 µM)
N/C(=N\OC(=O)CCN1C(=O)c2ccccc2C1=O)c1ccccn1	49.6 (≈ 147 µM)
COc1ccc(OC)c(CN2CCCC(C(=O)c3sccc3C)C2)c1 (stereo unspecified)	> 53.9
COCC(=O)Nc1ccc(S(=O)(=O)N2CCCC2)cc1	> 44.8
Cc1cc(C)c(S(=O)(=O)NCCCn2ccnc2)cc1C	> 46.1
COc1ccc2c(-c3ccccc3)cc(=S)[nH]c2c1	2.4 (≈ 8.98 µM)
CS(=O)(=O)NCC(c1cccnc1)N1CCN(c2ccccc2F)CC1 (stereo unspecified)	55.4 (≈ 146 µM)
O=C(NC(=O)N1CCCCCC1)c1ccc(Cl)cc1	> 42.1
Cc1cc(C(=O)COC(=O)C2CC2)c(C)n1-c1ccc(F)cc1	12.9 (≈ 40.9 µM)
Cc1ccc(NC(=O)Nc2cccc3ccccc23)cc1	< 0.3
COC(=O)c1ccsc1NC(=O)c1ccco1	3.2 (≈ 12.7 µM)
COc1ccc(-c2csc3ncnc(NCCO)c23)cc1	> 45.2
Cc1ccc(CNC(=O)c2cccnc2Sc2cccc(Cl)c2)cc1	0.5 (≈ 1.36 µM)
Cc1ccnc(NC(=O)CCC(=O)c2cccs2)c1	> 41.2
Cc1c(NC(=O)c2ccc(S(=O)(=O)Nc3ccccc3F)cc2)c(=O)n(-c2ccccc2)n1C	> 72.1
CCCCC(Sc1nc(C)c(Cc2ccccc2)c(=O)[nH]1)C(=O)O (stereo unspecified)	> 52
CN(CC(O)Cn1c2ccccc2c2ccccc21)S(C)(=O)=O (stereo unspecified)	> 49.9
Cc1ccc(C)c(N2CCN(c3ccc([N+](=O)[O-])cn3)CC2)c1	< 0.2

SMILES	solubility kinetic [µg/mL]
CN1C(=O)c2ccccc2N(C)C1c1ccc(F)cc1 (stereo unspecified)	30.7 (≈ 114 µM)
O=C1CC(N2CCOCC2)C(=O)N1c1ccc(Cl)cc1 (stereo unspecified)	> 44.2
CN(C)C(C(=O)Nc1cc(Cl)cc(Cl)c1)c1ccccc1 (stereo unspecified)	19.2 (≈ 59.4 µM)
Cn1c(C(=O)O)ccc1S(=O)(=O)N1CCCCCC1	> 43
Cc1ccc2nc(C)cc(C(=O)Nc3nccs3)c2c1	19.3 (≈ 68.1 µM)
CCOC(=O)C1CCN(C(=O)Nc2cc(Cl)cc(Cl)c2)CC1	20.4 (≈ 59.1 µM)
CCOc1ccc(Nc2nc3c(C)cccc3cc2C#N)cc1	< 0.2
Cc1c(C)c(C)c(CN2CCCC2)c(C)c1C	29.4 (≈ 127 µM)
COc1ccc([N+](=O)[O-])cc1NC(=O)CCC(=O)c1cccs1	3.8 (≈ 11.4 µM)
Cc1nc2ccc(NC(=O)c3cc(Cl)ccn3)cc2s1	4.9 (≈ 16.1 µM)
CC(C)CCC1(CCNC(=O)c2cccs2)CCOC(C)(C)C1 (stereo unspecified)	22.4 (≈ 66.4 µM)
COC(=O)/C=C1\SC(=NC(=O)c2ccc(OC)cc2)NC1=O	12 (≈ 37.5 µM)
Cc1ccc(Nc2nc(Cl)nc(NC(C)(C)C)n2)cc1	3.8 (≈ 13 µM)
O=C(Nc1cc(S(=O)(=O)Nc2ccccc2Cl)ccc1O)c1ccc(F)cc1F	3.3 (≈ 7.52 µM)
O=S(=O)(c1cccc(F)c1)N1CCN(c2nc(-c3cccnc3)nc3ccccc23)CC1	1.2 (≈ 2.67 µM)
Cc1ccccc1Nc1nc(-c2cccnc2)cs1	11.2 (≈ 41.9 µM)
COC(=O)c1ccc(NC(=S)N2CCN(C)CC2)cc1	> 44
CCCCN(C(=O)C1COc2ccccc2O1)c1c(N)n(CCC)c(=O)[nH]c1=O (stereo unspecified)	> 60.4
CCC(=O)c1cn(CC(=O)Nc2ccccc2Cl)c2ccccc12	0.8 (≈ 2.35 µM)
CC/C(C)=N/Oc1nc(C)cc(C)n1	28.5 (≈ 147 µM)
Cc1ccc(NC(=O)C2CCCCC2C(=O)O)cc1Cl (stereo unspecified)	> 44.4
CCCCCCC(=O)Nc1ccc(S(=O)(=O)Nc2onc(C)c2C)cc1	> 56.9
NC(=O)c1ccc(Oc2ccc(Cl)cc2)c([N+](=O)[O-])c1	2 (≈ 6.83 µM)
CCOc1ccc(NC(=O)N(c2ccccc2)c2ccccc2)cc1	2.5 (≈ 7.52 µM)
C=Cn1cc[n+](CC(=O)c2ccc(Cl)cc2)c1.[Br-]	43.3

SMILES	solubility kinetic [µg/mL]
COc1cc(/C=C(\C#N)C(=O)N2CCCCC2)ccc1O	> 42.9
CCn1c(=O)c(C(=O)NCc2ccccc2OC)c(O)c2ccccc21	0.7 (≈ 1.99 µM)
O=C(CN1C(=O)NC2(CCCC2)C1=O)NCc1cccc(Cl)c1	42.4 (≈ 126 µM)
Cn1cccc1/C=C1\SC(=Nc2cccc(O)c2)NC1=O	5.6 (≈ 18.7 µM)
Cc1nc(Cl)sc1C(=O)Nc1ccc(C(F)(F)F)cc1	6.6 (≈ 20.6 µM)
CCN1CCN(C(=O)CN2C(=O)COc3ccc(C)cc32)CC1	> 47.6
Cc1ccc(CN(C)C2CCN(C)CC2)cc1	31.3 (≈ 135 µM)
COc1ccc(NC(=O)C(=O)NCCCn2ccnc2)cc1	43.1 (≈ 143 µM)
CC1CN(c2ccc([N+](=O)[O-])nc2)CC(C)O1 (stereo unspecified)	> 35.6
CCC1CCC/C1=N\NC(=O)c1ccoc1C (stereo unspecified)	> 35.1
O=S(=O)(NCc1ccccc1)c1cccc2nsnc12	44.2 (≈ 145 µM)
O=C(NNC(=O)c1cccs1)c1ccc(Cl)nc1	> 42.3
COc1cc(C(=O)NC2CCCc3ccccc32)cc(OC)c1C (stereo unspecified)	< 0.7
O=C(O)COc1ccccc1/C=N/NC(=O)c1ccc(F)cc1	> 47.4
CCCN1CCN(C(=O)CCCNC(=O)c2ccc(Cl)cc2)CC1	> 52.8
CC(=O)c1ccc(N=C2SCCCN2C(=O)C2CCCC2)cc1	47.5 (≈ 144 µM)
CSc1ccc(Cl)c(C(=O)OCC(=O)N2CCNC2=O)c1	> 49.3
O=S1(=O)CCN(C(CCO)c2cccc(C(F)(F)F)c2)CC1 (stereo unspecified)	> 50.6
COc1cc(OC)c(C(=O)N2CCCC2)cc1OC	> 39.8
Cc1cccc[n+]1CC(=O)c1ccccc1.[Br-]	> 43.8
Cc1ccsc1C(=O)OC(C)C(=O)Nc1ccc(Cl)cn1 (stereo unspecified)	28.6 (≈ 88.1 µM)
CC(=O)c1ccccc1NC(=O)COC(=O)c1cc(C)oc1C	2.2 (≈ 6.98 µM)
CCCNC(=O)CN1C(=O)NC(CCSC)C1=O (stereo unspecified)	> 41
CCC(C)C(NC(=O)c1ccccc1NC(=O)c1ccccc1)C(=O)O (stereo unspecified)	50.7 (≈ 143 µM)
O=c1[nH]oc2cc(Cl)ccc12	> 25.4

SMILES	solubility kinetic [µg/mL]
CCN(CC)S(=O)(=O)c1cccc(C(=O)NC2=NCCS2)c1	34.8 (≈ 102 µM)
CC(C)(C)NC(=O)C(=O)NNC(=O)c1cccc([N+](=O)[O-])c1	> 46.2
Cc1cc(C=O)c(C)n1C1CC1	17.6 (≈ 108 µM)
CC(C)(C)NC(=O)N1c2ccccc2Sc2ccccc21	23 (≈ 77.1 µM)
COc1ccc(S(=O)(=O)NCc2ccc(F)cc2)cc1OC	> 48.8
COc1ccccc1C(=O)OCC(=O)c1ccc(CNC(C)=O)s1	50.1 (≈ 144 µM)
COCCNC(=O)c1ccc2c(c1)C(=O)c1ccccc1-2	> 42.2
COc1cccc(C(=O)Nc2cccc3ccccc23)c1OC	14.5 (≈ 47.2 µM)
CC(C)(C)N(Cc1ccccc1)C(=O)COC(=O)c1ccc(N2CCCC2=O)cc1	2.5 (≈ 6.12 µM)
Cc1ccc(OCCN2CCOCC2)cc1C	> 35.3
CC1CCC(NC(=O)CN2C(=O)c3ccccc3S2(=O)=O)CC1 (stereo unspecified)	> 50.5
Cl.c1ccc(CNc2c3c(nc4ccccc24)CCC3)cc1	> 46.6
Cc1noc(C)c1C(=O)N1CCN(c2ccccc2O)CC1	44.9 (≈ 149 µM)
O=C(NCc1ccccc1F)C12CC3CC(CC(C3)C1)C2	1 (≈ 3.48 µM)
O=C(OCC(=O)N1CCN(c2ccccc2)CC1)c1ccncc1	> 48.8
COc1ccc(CNC(=O)CN2C(=O)c3ccccc3C2=O)cc1	4.4 (≈ 13.6 µM)
O=C(N/N=C/c1cccnc1)c1ccco1	> 32.3
CC1SCC(NC(=O)c2ccc(Cl)cc2)CS1 (stereo unspecified)	39.2 (≈ 136 µM)
O=C(NC1CCSC1)c1cccc(Cl)c1 (stereo unspecified)	> 36.3
CN(C)C(=S)SCCn1c(N)nc(N(C)C)nc1=O	> 45.4
O=C(O)c1cn(CCOc2ccccc2Cl)c2ccccc12	> 47.4
O=C1CN(S(=O)(=O)c2cc(Cl)ccc2Cl)c2ccccc2N1	37.8 (≈ 106 µM)
CSCCC(NC(=O)/C(=C/c1ccco1)NC(=O)c1ccco1)C(=O)O (stereo unspecified)	> 56.8
COC(C(=O)Nc1c(F)cccc1F)c1ccccc1 (stereo unspecified)	> 41.6
N#Cc1ccccc1OCC(=O)Nc1ccc2c(c1)OCCCO2	> 48.7

SMILES	solubility kinetic [µg/mL]
COCCn1cc(-c2csc(N)n2)c2ccccc21	35.1 (≈ 128 µM)
Cc1ccc(C(=O)O/N=C(\N)Cc2ccc([N+](=O)[O-])cc2)c(Cl)c1	3.9 (≈ 11.2 µM)
COc1ccc(NC(=O)CNC(=O)Cc2ccccc2)cc1OC	> 49.3
COc1cc2nc(Cl)nc(N3CCOCC3)c2cc1OC	13.1 (≈ 42.3 µM)
O=C(Cc1c(F)cccc1Cl)OCC(=O)c1ccc[nH]1	26.1 (≈ 88.3 µM)
O=C(NC(=S)Nc1ccccc1)C1CCCCC1	0.6 (≈ 2.29 µM)
COCC(C)NC(=O)C(C)N1c2cccc3cccc(c23)S1(=O)=O (stereo unspecified)	50.9 (≈ 146 µM)
COC(=O)CSc1nc2sc3c(c2c(=O)[nH]1)CCC3	15.7 (≈ 53 µM)
Cc1ccc(NC(=O)c2cnccn2)nc1	> 32.1
Cc1ccc(C2=NCC(=O)Nc3ccc(Br)cc32)cc1	42.1 (≈ 128 µM)
Cc1ccccc1S(=O)(=O)Nc1ncnc2ccccc12	> 44.9
Cc1c(C(=O)NC(C)c2ccccn2)oc2c(Cl)cccc12 (stereo unspecified)	24.4 (≈ 77.5 µM)
COc1ccc(C(=O)CC(=O)C(=O)Nc2ccccc2)cc1	34.6 (≈ 116 µM)
Cc1ccc(Nc2cc(C)c3ccc(O)cc3n2)cc1C.Cl	11.1
O=C(NCC1CCCO1)c1ccc(NC(=O)c2cccc(Cl)c2)cc1 (stereo unspecified)	2.5 (≈ 6.97 µM)
COc1ccc2c(c1)c(CC(=O)OCC(=O)O)c(C)n2C(=O)c1ccc(Cl)cc1	> 62.4
COc1cc(C(=O)NCCCc2ccccc2)cc(OC)c1OC	> 49.4
CCC(=Nc1ccccc1)C1=C(O)CCCC1=O	19.9 (≈ 81.8 µM)
O=C(/C=C/c1cccs1)N1CCCC1	> 31.1
O=C1CN(C(=S)Nc2ccccc2Cl)CCN1	> 40.5
Cn1c(=O)c2[nH]c(C3CCCC3)nc2n(C)c1=O	> 37.2
